Activity calls are given as the source filed them. The calls are words filed in the database; no cut-off is given here. Square brackets hold non-standard residues; d marks the D form. Peptide text beside a SMILES is read from it. Lys(N3) = [N-]=[N+]=NCCCC[C@H](N)C(=O)O; pS = N[C@@H](COP(=O)(O)O)C(=O)O
Tests used:
[1] = target: Serine/threonine-protein kinase pim-1 (Homo sapiens, UniProt P11309); assay: Drug degradation in NEB buffer assessed as PIM1 kinase (unknown origin)-mediated H3-pSer-CoA formation at 1 mg after 60 mins by RP-HPLC analysis; type: ADME; conditions: 1 h
Chain of Serine/threonine-protein kinase pim-1 (P11309 whole entry): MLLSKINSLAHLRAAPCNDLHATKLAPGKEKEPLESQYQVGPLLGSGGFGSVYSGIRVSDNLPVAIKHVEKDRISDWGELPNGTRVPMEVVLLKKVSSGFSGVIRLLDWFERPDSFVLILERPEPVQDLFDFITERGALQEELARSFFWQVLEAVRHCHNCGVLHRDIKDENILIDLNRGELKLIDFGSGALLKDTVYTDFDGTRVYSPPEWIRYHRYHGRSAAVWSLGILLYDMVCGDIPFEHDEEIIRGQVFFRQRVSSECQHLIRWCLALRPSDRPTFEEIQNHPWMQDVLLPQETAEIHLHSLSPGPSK

[2] = target: T1, Histone acetyltransferase KAT2B (Homo sapiens, UniProt Q92831); assay: Inhibition of PCAF (unknown origin) using histone H3 derived peptide as substrate after 20 mins by fluorescence assay
Target sequence in this assay (Q92831 whole entry): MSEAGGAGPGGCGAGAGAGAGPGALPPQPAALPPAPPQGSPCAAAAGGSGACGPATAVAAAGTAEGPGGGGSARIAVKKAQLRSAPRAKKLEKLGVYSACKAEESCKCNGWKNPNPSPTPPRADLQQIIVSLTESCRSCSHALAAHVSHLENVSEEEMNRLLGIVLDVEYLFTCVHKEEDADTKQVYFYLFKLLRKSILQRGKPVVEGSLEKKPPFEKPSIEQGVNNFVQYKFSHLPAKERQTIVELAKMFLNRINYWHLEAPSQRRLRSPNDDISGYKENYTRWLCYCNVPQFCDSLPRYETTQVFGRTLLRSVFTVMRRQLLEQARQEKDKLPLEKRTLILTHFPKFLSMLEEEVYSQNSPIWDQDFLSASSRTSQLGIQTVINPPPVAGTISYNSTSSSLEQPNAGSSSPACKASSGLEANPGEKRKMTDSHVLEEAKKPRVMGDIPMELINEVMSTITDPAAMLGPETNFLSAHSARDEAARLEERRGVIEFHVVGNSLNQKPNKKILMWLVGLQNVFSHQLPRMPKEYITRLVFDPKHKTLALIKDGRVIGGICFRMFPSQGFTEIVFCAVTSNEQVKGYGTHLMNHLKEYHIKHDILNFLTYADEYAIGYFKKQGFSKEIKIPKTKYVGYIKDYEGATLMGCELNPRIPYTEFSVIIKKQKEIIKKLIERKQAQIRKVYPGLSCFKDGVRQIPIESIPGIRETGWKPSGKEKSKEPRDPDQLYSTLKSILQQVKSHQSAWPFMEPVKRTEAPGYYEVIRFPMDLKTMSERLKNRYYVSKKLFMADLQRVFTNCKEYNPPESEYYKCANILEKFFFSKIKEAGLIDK

[3] = target: T1, Histone acetyltransferase KAT2B; assay: Competitive inhibition of PCAF (unknown origin) using histone H3 derived peptide as substrate after 20 mins by fluorescence assay
Target sequence in this assay (Q92831 whole entry): as above

[4] = Drug degradation in NEB buffer at 1 mg after 10 to 120 mins by RP-HPLC analysis; type: physicochemical
[5] = target: T1, Histone acetyltransferase KAT2B; assay: Inhibition of PCAF (unknown origin) using histone H3 derived peptide as substrate at 10^-6 to 10^-3 M after 20 mins by fluorescence assay
Target sequence in this assay (Q92831 whole entry, looked up): as the sequence (Q92831 whole entry) above

[6] = Drug degradation in NEB buffer assessed as Protein phosphatase 1 (unknown origin)-mediated H3-Ser-CoA formation at 1 mg after 30 mins by RP-HPLC analysis; type: ADME, Homo sapiens; conditions: 0.5 h

Drug degradation [1] | IC50 [2] | IC50 [3] | Stability [4] | inhibition [5] | Drug degradation [6] | Structure (SMILES)
Active | 2.8 µM | 117 µM | Unstable |  |  | CC(=O)N[C@@H](C)C(=O)N[C@@H](CCCNC(=N)N)C(=O)N[C@@H](CCCCN)C(=O)N[C@@H](CO)C(=O)N[C@H](C(=O)NCC(=O)NCC(=O)N[C@@H](CCCCn1cc(CSCCNC(=O)CCNC(=O)[C@@H](O)C(C)(C)COP(=O)(O)OP(=O)(O)OC[C@H]2O[C@@H](n3cnc4c(N)ncnc43)[C@H](O)[C@@H]2OP(=O)(O)O)nn1)C(=O)N[C@@H](C)C(=O)N1CCC[C@H]1C(=O)N[C@@H](CCCNC(=N)N)C(=O)N[C@@H](CCCCN)C(N)=O)[C@@H](C)O
 |  |  |  | inactive |  | CC(=O)N[C@@H](C)C(=O)N[C@@H](CCCNC(=N)N)C(=O)N[C@@H](CCCCN)C(=O)N[C@@H](CO)C(=O)N[C@H](C(=O)NCC(=O)NCC(=O)N[C@@H](CCCCN=[N+]=[N-])C(=O)N[C@@H](C)C(=O)N1CCC[C@H]1C(=O)N[C@@H](CCCNC(=N)N)C(=O)N[C@@H](CCCCN)C(N)=O)[C@@H](C)O (Ac-ARKSTGG[Lys(N3)]APRK-NH2)
 | 1.7 µM | 33 µM | Unstable |  | Active | CC(=O)N[C@@H](C)C(=O)N[C@@H](CCCNC(=N)N)C(=O)N[C@@H](CCCCN)C(=O)N[C@@H](COP(=O)(O)O)C(=O)N[C@H](C(=O)NCC(=O)NCC(=O)N[C@@H](CCCCn1cc(CSCCNC(=O)CCNC(=O)[C@@H](O)C(C)(C)COP(=O)(O)OP(=O)(O)OC[C@H]2O[C@@H](n3cnc4c(N)ncnc43)[C@H](O)[C@@H]2OP(=O)(O)O)nn1)C(=O)N[C@@H](C)C(=O)N1CCC[C@H]1C(=O)N[C@@H](CCCNC(=N)N)C(=O)N[C@@H](CCCCN)C(N)=O)[C@@H](C)O
 |  |  |  | inactive |  | CC(=O)N[C@@H](C)C(=O)N[C@@H](CCCNC(=N)N)C(=O)N[C@@H](CCCCN)C(=O)N[C@@H](COP(=O)(O)O)C(=O)N[C@H](C(=O)NCC(=O)NCC(=O)N[C@@H](CCCCN=[N+]=[N-])C(=O)N[C@@H](C)C(=O)N1CCC[C@H]1C(=O)N[C@@H](CCCNC(=N)N)C(=O)N[C@@H](CCCCN)C(N)=O)[C@@H](C)O (Ac-ARK[pS]TGG[Lys(N3)]APRK-NH2)
 |  |  |  | inactive |  | C#CCSCCNC(=O)CCNC(=O)[C@@H](O)C(C)(C)COP(=O)(O)OP(=O)(O)OC[C@H]1O[C@@H](n2cnc3c(N)ncnc32)[C@H](O)[C@@H]1OP(=O)(O)O

Reference: ChEMBL document CHEMBL3098069, “Azide-alkyne cycloaddition affording enzymatically tunable bisubstrate based inhibitors of histone acetyltransferase PCAF” (Bioorg Med Chem Lett, 2014)
